In ChEMBL document CHEMBL1201862, “PubChem BioAssay data set” (2004):
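1) Cells in 96-well plates. 2) Compound, 48 h, 5 concentrations. 3) Linear interpolation between surrounding doses. 4) Unreached endpoint = highest concentration. GI50 = concentration required for 50% inhibition of growth.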 Active and inactive are the calls of the source. Cut-off read from the data, not from the text of the source: active = GI50 up to about 1.1 µM and inactive = higher.

Experiments:
Experiment in all cases: NCI anticancer screen, dose series, 48 h
OVCAR-4 = tested on: OVCAR-4
RXF 631 = tested on: RXF 631
M19-MEL = tested on: M19-MEL
HCC 2998 = tested on: HCC 2998
LOX IMVI = tested on: LOX IMVI
LXFL 529 = tested on: LXFL 529
M14 = tested on: M14
EKVX = tested on: EKVX
HOP-92 = tested on: HOP-92
OVCAR-5 = tested on: OVCAR-5
SF-268 = tested on: SF-268
NCI-H226 = tested on: NCI-H226
UO-31 = tested on: UO-31
HOP-62 = tested on: HOP-62
UACC-62 = tested on: UACC-62
COLO 205 = tested on: COLO 205
HL-60 = tested on: HL-60
HT-29 = tested on: HT-29
OVCAR-3 = tested on: OVCAR-3
HCT-15 = tested on: HCT-15
IGROV-1 = tested on: IGROV-1
SW-620 = tested on: SW-620
CCRF-CEM = tested on: CCRF-CEM
U-251 = tested on: U-251
Malme-3M = tested on: Malme-3M
NCI-H23 = tested on: NCI-H23
SK-MEL-28 = tested on: SK-MEL-28
SF-295 = tested on: SF-295
CAKI-1 = tested on: CAKI-1
RXF 393 = tested on: RXF 393
SK-OV-3 = tested on: SK-OV-3
OVCAR-8 = tested on: OVCAR-8
MOLT-4 = tested on: MOLT-4
ACHN = tested on: ACHN
DLD-1 = tested on: DLD-1
HOP-18 = tested on: HOP-18
UACC-257 = tested on: UACC-257
DMS-114 = tested on: DMS-114
SNB-78 = tested on: SNB-78
SN12C = tested on: SN12C
NCI-H460 = tested on: NCI-H460
K562 = tested on: K562
SNB-19 = tested on: SNB-19
KM12 = tested on: KM12
HCT-116 = tested on: HCT-116
SK-MEL-2 = tested on: SK-MEL-2
KM-20L2 = tested on: KM-20L2
SF-539 = tested on: SF-539
NCI-H522 = tested on: NCI-H522
SNB-75 = tested on: SNB-75
A498 = tested on: A498
A549 = tested on: A549
RPMI-8226 = tested on: RPMI-8226
TK-10 = tested on: TK-10
SK-MEL-5 = tested on: SK-MEL-5
DMS-273 = tested on: DMS-273
SR = tested on: SR
786-0 = tested on: 786-0

Measured: GI50

Cc1ccc(NC(=O)CC/C(CC(=O)C(C)(C)C)=N/NC(=O)c2cc3ccccc3cc2O)cc1C
inactive: OVCAR-4 30.8 µM | RXF 631 44.1 µM | M19-MEL 39.4 µM | HCC 2998 29.2 µM | LOX IMVI 20.3 µM | LXFL 529 35.2 µM | M14 32.5 µM | EKVX 36.5 µM | HOP-92 47.6 µM | OVCAR-5 32.1 µM | SF-268 33.3 µM | NCI-H226 37.2 µM | UO-31 38.6 µM | HOP-62 36.8 µM | UACC-62 24.5 µM | COLO 205 39.1 µM | HL-60 20.4 µM | HT-29 41.7 µM | OVCAR-3 32.7 µM | IGROV-1 32.8 µM | SW-620 48 µM | CCRF-CEM 16.2 µM | U-251 35.6 µM | Malme-3M 35.2 µM | NCI-H23 19.6 µM | SK-MEL-28 80 µM | SF-295 17.9 µM | CAKI-1 > 100 µM | RXF 393 35.2 µM | SK-OV-3 50 µM | OVCAR-8 26.8 µM | MOLT-4 17.7 µM | ACHN 31 µM | DLD-1 30 µM | HOP-18 32.1 µM | UACC-257 38.1 µM | DMS-114 31.6 µM | SNB-78 60.5 µM | SN12C 33.6 µM | NCI-H460 39.4 µM | K562 > 10 µM | SNB-19 39.5 µM | KM12 36.6 µM | HCT-116 40.3 µM | SK-MEL-2 32.4 µM | KM-20L2 34.5 µM
27.7 µM: HCT-15

CCCCN(CCCC)C(=O)C(=O)CC(=O)/C=C/c1ccccc1
inactive: OVCAR-4 > 100 µM | RXF 631 > 100 µM | SF-539 > 100 µM | M19-MEL > 100 µM | HCC 2998 > 100 µM | NCI-H522 > 100 µM | LOX IMVI > 100 µM | LXFL 529 > 100 µM | M14 > 100 µM | EKVX > 100 µM | SNB-75 > 100 µM | HOP-92 > 100 µM | OVCAR-5 > 100 µM | A498 > 100 µM | A549 > 100 µM | SF-268 > 100 µM | NCI-H226 > 100 µM | UO-31 > 100 µM | HOP-62 > 100 µM | UACC-62 > 100 µM | COLO 205 > 100 µM | HL-60 > 100 µM | HT-29 > 100 µM | OVCAR-3 > 100 µM | IGROV-1 > 100 µM | SW-620 > 100 µM | CCRF-CEM > 100 µM | U-251 > 100 µM | Malme-3M > 100 µM | NCI-H23 > 100 µM | SK-MEL-28 > 100 µM | SF-295 > 100 µM | CAKI-1 > 100 µM | RXF 393 > 100 µM | RPMI-8226 > 100 µM | TK-10 > 100 µM | SK-OV-3 > 100 µM | OVCAR-8 > 100 µM | MOLT-4 > 100 µM | ACHN > 100 µM | DLD-1 > 100 µM | HOP-18 > 100 µM | UACC-257 > 100 µM | DMS-114 > 100 µM | SNB-78 > 100 µM | SN12C > 100 µM | NCI-H460 > 100 µM | SK-MEL-5 > 100 µM | K562 > 100 µM | SNB-19 > 100 µM | KM12 > 100 µM | HCT-116 > 100 µM | SK-MEL-2 > 100 µM | KM-20L2 > 100 µM | DMS-273 > 100 µM | SR > 100 µM | 786-0 > 100 µM
> 100 µM: HCT-15
